Values belong to the molecule of their own block, whether it stands above or below them.
Experiments:
[1] = molecular target: T1, Protein deacetylase HDAC6 (Homo sapiens, UniProt Q9UBN7); assay: Inhibition of HDAC6 in human HeLa nuclear extracts by fluorometric assay
T1 sequence (Q9UBN7 whole entry): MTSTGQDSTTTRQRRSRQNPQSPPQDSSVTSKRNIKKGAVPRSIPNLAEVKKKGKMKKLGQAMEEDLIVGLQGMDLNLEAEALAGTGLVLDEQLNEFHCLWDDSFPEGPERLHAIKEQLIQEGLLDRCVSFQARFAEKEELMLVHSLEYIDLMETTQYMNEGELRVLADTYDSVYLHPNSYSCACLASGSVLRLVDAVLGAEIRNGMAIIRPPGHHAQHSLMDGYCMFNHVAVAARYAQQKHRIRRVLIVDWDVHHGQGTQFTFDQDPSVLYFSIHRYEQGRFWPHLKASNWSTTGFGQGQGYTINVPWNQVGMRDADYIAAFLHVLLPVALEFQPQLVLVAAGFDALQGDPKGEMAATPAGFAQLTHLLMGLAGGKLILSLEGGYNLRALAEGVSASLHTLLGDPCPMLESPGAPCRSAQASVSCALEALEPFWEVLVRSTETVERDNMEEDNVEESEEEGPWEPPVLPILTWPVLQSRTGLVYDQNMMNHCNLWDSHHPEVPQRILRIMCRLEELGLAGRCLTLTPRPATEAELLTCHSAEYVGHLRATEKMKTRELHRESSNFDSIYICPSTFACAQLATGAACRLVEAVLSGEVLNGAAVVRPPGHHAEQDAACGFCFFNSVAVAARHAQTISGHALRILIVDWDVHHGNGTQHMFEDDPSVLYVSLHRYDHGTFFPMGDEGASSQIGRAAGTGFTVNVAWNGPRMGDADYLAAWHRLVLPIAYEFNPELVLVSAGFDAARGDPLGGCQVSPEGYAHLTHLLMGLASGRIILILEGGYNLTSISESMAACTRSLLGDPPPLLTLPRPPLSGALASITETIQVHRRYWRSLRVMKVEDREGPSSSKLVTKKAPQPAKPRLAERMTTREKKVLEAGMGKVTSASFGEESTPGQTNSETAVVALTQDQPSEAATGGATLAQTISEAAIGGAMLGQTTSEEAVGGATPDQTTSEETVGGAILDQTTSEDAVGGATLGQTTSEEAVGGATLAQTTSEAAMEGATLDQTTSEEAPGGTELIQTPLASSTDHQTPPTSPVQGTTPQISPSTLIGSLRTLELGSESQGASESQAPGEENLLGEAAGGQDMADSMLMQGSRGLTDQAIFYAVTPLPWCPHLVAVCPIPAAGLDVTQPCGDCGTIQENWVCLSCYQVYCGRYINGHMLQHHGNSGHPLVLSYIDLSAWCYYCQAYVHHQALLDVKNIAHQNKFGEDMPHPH

Histone deacetylase 4 = Histone deacetylase 4 (Homo sapiens, UniProt P56524); assay: Inhibition of HDAC4 in human HeLa nuclear extracts by fluorometric assay
Histone deacetylase 5 = Histone deacetylase 5 (Homo sapiens, UniProt Q9UQL6)
Description: Inhibition of HDAC5 in human HeLa nuclear extracts by fluorometric assay

Histone deacetylase 8 = molecular target: T2, Histone deacetylase 8 (Homo sapiens, UniProt Q9BY41); assay: Inhibition of HDAC8 in human HeLa nuclear extracts by fluorometric assay
T2 sequence (Q9BY41 whole entry): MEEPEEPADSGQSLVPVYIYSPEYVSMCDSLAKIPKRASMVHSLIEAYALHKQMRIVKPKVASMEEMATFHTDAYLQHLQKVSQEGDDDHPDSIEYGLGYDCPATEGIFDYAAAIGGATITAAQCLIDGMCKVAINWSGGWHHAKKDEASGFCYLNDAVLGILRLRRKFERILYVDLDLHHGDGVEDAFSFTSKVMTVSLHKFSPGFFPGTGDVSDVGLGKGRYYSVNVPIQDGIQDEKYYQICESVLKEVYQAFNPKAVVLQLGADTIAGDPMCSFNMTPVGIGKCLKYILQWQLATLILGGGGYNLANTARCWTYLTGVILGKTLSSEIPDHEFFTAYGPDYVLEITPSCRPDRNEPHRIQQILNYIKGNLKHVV

[2] = molecular target: T3, Amine oxidase [flavin-containing] A (Homo sapiens, UniProt P21397); assay: Inhibition of MAO-A (unknown origin)
T3 sequence (P21397 whole entry): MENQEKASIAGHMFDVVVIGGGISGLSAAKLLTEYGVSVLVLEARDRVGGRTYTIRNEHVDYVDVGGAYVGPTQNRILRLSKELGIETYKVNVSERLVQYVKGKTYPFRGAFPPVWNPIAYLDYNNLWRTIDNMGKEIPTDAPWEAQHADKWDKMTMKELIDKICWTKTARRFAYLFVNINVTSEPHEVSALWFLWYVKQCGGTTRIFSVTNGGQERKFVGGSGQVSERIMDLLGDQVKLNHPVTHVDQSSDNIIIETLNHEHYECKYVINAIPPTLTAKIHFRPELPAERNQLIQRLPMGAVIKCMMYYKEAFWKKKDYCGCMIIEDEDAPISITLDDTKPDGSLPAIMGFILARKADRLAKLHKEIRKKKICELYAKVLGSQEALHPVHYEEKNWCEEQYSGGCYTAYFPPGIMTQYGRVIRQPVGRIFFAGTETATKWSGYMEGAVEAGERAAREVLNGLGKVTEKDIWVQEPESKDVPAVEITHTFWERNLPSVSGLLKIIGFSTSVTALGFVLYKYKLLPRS

[3] = molecular target: T4, Amine oxidase [flavin-containing] B (Homo sapiens, UniProt P27338)
T4 sequence (P27338 whole entry): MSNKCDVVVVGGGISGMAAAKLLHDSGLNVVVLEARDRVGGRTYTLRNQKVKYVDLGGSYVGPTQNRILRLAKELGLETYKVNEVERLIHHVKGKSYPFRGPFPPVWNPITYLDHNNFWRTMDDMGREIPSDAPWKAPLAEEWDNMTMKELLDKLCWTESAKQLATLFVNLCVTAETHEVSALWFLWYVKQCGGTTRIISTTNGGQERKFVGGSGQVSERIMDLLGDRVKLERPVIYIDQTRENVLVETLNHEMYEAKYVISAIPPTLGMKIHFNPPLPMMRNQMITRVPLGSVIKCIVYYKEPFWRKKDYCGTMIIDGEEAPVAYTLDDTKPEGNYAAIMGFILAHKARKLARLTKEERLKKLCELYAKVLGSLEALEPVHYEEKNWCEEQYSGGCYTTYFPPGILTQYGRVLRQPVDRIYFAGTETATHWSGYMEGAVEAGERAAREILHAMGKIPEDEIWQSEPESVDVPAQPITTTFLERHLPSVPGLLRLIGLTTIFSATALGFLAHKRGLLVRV
Description: Inhibition of human MAO-B using (4S)-4,5-dihydro-2-(6-hydroxybenzothiazolyl)-4-thiazolecarboxylic acid as substrate after 60 mins by MAO-Glo assay

[4] = molecular target: T3, Amine oxidase [flavin-containing] A
Description: Inhibition of human MAO-A using (4S)-4,5-dihydro-2-(6-hydroxybenzothiazolyl)-4-thiazolecarboxylic acid as substrate after 60 mins by MAO-Glo assay

[5] = molecular target: Non-receptor tyrosine-protein kinase TYK2 (Homo sapiens, UniProt P29597); assay: Inhibition of TYK2 (unknown origin) after 20 mins by radiometric analysis in presence of [gamma33P]-ATP
[6] = molecular target: Tyrosine-protein kinase JAK2 (Homo sapiens, UniProt O60674); assay: Inhibition of JAK2 (unknown origin) after 20 mins by radiometric analysis in presence of [gamma33P]-ATP
[7] = molecular target: Tyrosine-protein kinase JAK1 (Homo sapiens, UniProt P23458); assay: Inhibition of JAK1 (unknown origin) after 20 mins by radiometric analysis in presence of [gamma33P]-ATP
[8] = molecular target: T5, Tyrosine-protein kinase JAK3 (Homo sapiens, UniProt P52333); assay: Inhibition of JAK3 (unknown origin) after 20 mins by radiometric analysis in presence of [gamma33P]-ATP
T5 sequence (P52333 whole entry): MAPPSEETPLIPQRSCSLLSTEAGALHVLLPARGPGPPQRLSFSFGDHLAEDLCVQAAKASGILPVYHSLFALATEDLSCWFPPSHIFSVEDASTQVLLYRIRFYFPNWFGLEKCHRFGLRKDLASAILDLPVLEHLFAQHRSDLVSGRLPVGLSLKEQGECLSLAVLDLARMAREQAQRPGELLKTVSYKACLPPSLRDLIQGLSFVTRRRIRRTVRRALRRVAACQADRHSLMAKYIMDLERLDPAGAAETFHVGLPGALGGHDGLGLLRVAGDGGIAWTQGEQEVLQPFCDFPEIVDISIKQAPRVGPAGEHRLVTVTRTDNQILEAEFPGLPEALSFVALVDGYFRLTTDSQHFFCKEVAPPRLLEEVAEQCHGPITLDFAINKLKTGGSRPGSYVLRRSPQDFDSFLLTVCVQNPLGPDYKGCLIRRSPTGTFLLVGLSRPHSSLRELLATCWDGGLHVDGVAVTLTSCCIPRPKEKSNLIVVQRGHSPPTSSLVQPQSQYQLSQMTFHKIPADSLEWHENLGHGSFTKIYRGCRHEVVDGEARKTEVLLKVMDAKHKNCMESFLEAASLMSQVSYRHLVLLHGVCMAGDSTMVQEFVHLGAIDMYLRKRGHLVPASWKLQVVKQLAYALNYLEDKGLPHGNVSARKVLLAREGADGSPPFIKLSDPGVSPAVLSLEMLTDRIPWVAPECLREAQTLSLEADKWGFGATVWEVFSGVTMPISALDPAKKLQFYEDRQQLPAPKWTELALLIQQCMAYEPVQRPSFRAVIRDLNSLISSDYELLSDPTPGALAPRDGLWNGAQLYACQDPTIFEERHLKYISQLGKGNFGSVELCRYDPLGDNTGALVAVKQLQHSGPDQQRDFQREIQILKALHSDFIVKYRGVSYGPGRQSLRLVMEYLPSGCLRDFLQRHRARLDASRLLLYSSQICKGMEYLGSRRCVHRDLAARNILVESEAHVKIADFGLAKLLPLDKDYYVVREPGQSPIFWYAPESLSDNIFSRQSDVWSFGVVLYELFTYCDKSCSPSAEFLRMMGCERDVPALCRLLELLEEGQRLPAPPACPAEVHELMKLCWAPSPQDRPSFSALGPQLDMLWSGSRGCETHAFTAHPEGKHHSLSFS

[9] = molecular target: Phosphatidylinositol 4,5-bisphosphate 3-kinase catalytic subunit gamma isoform (Homo sapiens, UniProt P48736); assay: Inhibition of recombinant human PI3Kgamma by TR-FRET analysis
[10] = molecular target: Serine/threonine-protein kinase mTOR (Homo sapiens, UniProt P42345); assay: Inhibition of recombinant human mTOR by TR-FRET analysis
[11] = molecular target: Phosphatidylinositol 4,5-bisphosphate 3-kinase catalytic subunit beta isoform (Homo sapiens, UniProt P42338); assay: Inhibition of recombinant human PI3Kbeta by TR-FRET analysis
[12] = molecular target: T6, Phosphatidylinositol 4,5-bisphosphate 3-kinase catalytic subunit delta isoform (Homo sapiens, UniProt O00329); assay: Inhibition of recombinant human PI3Kdelta by TR-FRET analysis
T6 sequence (O00329 whole entry): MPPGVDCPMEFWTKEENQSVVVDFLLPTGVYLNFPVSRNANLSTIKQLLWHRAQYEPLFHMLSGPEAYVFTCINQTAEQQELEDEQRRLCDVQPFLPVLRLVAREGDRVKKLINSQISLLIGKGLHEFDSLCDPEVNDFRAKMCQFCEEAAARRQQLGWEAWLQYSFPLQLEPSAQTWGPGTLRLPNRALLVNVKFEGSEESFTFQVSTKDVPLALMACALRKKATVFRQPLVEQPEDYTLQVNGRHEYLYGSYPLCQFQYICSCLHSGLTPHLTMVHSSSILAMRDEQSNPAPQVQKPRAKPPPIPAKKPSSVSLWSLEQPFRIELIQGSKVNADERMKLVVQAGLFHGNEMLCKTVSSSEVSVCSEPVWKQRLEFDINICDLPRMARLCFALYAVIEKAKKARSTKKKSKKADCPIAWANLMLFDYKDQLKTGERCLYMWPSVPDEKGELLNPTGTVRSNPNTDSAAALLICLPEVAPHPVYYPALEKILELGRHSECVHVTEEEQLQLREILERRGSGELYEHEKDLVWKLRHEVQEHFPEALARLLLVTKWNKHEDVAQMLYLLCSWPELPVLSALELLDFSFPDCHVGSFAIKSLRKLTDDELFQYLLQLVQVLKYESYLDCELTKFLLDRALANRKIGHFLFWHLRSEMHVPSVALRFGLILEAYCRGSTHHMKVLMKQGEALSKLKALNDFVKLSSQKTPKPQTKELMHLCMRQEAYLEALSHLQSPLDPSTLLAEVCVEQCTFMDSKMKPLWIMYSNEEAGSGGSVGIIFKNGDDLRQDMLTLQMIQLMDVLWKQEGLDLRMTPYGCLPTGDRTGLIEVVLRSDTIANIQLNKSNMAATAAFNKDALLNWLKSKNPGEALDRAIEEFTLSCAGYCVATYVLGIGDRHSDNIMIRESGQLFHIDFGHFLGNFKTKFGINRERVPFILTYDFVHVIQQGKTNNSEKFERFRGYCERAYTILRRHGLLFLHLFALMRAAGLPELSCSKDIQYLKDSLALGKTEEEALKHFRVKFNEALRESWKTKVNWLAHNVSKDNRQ

Sequence of Histone deacetylase 5 (Q9UQL6 whole entry): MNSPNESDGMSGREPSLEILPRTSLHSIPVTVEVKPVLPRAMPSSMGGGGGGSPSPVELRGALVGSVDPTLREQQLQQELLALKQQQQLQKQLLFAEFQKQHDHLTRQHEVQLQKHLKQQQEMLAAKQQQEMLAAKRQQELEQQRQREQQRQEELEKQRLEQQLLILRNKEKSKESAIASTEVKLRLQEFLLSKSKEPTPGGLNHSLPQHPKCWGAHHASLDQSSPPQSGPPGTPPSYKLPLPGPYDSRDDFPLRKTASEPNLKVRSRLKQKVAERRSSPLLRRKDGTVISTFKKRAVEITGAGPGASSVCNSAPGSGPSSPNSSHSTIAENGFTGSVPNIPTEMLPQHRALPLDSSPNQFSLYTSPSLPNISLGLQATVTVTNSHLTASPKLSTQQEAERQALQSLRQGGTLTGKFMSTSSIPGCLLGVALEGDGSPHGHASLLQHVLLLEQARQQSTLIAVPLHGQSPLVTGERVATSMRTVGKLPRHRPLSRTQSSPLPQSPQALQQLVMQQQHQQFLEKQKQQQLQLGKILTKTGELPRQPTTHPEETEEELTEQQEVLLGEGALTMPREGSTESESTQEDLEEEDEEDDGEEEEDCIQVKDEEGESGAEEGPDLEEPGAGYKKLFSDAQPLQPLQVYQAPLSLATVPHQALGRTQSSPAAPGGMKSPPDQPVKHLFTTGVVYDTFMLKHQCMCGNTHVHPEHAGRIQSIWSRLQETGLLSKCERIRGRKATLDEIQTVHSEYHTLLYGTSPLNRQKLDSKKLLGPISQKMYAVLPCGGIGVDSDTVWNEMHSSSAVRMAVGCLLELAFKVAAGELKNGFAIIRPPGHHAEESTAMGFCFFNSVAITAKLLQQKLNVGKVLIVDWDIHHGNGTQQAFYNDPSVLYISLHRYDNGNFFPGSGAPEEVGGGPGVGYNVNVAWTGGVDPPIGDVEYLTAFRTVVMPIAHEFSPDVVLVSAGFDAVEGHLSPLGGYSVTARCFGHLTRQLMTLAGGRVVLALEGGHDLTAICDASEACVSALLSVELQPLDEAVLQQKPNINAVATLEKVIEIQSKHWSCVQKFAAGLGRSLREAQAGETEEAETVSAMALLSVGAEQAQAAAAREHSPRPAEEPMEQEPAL
Sequence of Tyrosine-protein kinase JAK2 (O60674 whole entry): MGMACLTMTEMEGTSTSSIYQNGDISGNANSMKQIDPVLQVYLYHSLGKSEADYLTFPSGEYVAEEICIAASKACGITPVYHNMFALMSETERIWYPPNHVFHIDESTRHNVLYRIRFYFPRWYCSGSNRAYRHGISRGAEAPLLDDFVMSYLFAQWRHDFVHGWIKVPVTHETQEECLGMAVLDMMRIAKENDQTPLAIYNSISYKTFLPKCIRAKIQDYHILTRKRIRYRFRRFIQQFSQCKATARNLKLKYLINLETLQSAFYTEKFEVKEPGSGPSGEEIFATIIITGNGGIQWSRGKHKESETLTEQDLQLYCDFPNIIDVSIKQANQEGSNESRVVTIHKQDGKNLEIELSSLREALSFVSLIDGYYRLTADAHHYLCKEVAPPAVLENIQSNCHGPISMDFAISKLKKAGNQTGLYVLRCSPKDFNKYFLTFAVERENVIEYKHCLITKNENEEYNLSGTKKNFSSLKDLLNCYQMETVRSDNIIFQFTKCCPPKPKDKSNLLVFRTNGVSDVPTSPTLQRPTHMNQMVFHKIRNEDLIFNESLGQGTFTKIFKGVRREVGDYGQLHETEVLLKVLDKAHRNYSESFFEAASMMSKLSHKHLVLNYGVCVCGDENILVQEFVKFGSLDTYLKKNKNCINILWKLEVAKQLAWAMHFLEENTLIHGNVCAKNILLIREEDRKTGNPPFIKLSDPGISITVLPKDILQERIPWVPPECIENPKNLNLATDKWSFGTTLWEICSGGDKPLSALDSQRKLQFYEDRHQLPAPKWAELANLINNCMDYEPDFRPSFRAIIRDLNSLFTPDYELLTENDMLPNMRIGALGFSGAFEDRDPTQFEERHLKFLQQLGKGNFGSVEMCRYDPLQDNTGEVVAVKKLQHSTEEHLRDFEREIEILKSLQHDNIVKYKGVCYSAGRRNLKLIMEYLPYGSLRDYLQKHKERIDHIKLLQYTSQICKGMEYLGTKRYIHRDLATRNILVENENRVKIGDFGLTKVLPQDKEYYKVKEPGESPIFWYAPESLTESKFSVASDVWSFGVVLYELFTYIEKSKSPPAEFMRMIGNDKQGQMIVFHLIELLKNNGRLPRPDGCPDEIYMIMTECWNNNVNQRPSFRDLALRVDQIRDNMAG
Sequence of Histone deacetylase 4 (P56524 whole entry): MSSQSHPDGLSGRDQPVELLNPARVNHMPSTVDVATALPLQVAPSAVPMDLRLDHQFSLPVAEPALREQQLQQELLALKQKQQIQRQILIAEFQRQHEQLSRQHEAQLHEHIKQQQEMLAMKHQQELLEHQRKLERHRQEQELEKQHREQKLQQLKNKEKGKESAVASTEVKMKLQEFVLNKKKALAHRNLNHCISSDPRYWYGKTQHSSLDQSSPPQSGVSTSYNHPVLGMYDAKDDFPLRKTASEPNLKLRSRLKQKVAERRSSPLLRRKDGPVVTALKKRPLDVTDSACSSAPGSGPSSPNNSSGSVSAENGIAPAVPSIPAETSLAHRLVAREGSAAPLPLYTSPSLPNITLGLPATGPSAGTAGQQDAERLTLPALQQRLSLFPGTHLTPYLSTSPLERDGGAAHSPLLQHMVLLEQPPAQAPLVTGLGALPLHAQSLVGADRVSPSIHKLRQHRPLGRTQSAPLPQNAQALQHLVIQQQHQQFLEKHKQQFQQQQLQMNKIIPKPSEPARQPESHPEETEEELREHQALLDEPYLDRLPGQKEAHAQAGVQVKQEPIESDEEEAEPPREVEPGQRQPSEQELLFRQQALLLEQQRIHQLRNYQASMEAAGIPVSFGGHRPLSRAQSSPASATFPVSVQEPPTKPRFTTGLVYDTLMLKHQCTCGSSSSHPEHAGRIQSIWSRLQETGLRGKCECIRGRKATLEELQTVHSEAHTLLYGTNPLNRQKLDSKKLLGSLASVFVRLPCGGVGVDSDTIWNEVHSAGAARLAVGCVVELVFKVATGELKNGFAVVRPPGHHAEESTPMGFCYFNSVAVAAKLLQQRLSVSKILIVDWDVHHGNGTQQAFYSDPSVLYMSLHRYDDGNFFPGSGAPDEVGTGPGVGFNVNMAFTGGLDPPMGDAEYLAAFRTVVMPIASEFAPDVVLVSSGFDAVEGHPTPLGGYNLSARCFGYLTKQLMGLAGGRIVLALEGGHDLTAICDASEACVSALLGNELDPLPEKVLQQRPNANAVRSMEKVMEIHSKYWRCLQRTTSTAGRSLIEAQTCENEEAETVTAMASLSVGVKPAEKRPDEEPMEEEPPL
Sequence of Phosphatidylinositol 4,5-bisphosphate 3-kinase catalytic subunit beta isoform (P42338 whole entry, canonical isoform): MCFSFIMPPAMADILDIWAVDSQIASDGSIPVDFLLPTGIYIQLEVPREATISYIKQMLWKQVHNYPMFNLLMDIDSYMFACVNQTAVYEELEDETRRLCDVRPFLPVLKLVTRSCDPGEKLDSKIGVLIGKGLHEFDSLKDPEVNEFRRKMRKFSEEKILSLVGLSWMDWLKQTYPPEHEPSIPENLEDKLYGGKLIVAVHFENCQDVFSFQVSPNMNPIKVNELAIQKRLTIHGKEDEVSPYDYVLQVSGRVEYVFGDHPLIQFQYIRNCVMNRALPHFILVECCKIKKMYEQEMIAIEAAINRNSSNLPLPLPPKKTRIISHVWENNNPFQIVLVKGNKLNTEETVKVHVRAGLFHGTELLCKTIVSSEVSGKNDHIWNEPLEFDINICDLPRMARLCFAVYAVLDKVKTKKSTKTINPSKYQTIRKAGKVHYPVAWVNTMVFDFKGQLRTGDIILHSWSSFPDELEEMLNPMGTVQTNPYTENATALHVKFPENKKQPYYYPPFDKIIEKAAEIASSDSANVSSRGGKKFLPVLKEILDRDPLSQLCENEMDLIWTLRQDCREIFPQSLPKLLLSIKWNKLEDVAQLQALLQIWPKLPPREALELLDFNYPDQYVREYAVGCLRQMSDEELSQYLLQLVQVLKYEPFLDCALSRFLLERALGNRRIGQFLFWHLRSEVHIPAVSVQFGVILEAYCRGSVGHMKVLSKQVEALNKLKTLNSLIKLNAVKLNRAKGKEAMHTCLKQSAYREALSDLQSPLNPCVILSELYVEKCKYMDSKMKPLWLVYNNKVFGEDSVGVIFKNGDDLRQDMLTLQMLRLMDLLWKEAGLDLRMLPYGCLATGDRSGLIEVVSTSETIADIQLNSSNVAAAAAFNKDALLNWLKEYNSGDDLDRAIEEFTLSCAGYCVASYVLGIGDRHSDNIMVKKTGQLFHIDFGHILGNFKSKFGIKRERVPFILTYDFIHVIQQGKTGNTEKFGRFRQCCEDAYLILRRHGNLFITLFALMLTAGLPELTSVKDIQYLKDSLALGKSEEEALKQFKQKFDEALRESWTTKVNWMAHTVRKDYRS

IC50 [1]: > 100 µM
IC50 (Histone deacetylase 4): > 100 µM
IC50 (Histone deacetylase 5): > 100 µM
IC50 (Histone deacetylase 8): > 100 µM
Compound: Nc1ccccc1NC(=O)c1ccc(-c2cn(CCc3ccsc3)nn2)cc1

IC50 [2]: > 25 µM
Compound: O=C(N[C@@H](CCCCNC1CC1c1ccccc1)C(=O)NCc1ccccc1)c1ccccc1 (stereo partly drawn)

IC50 [3]: 500 µM
IC50 [4]: 230 µM
Compound: NC1CC1c1cccc(OCC[C@H](NC(=O)c2ccccc2)C(=O)NCc2ccccc2)c1 (stereo partly drawn)

IC50 [3]: > 1000 µM
IC50 [4]: 290 µM
Compound: N[C@@H]1C[C@H]1c1ccc(OCC[C@H](NC(=O)c2ccccc2)C(=O)NCc2ccccc2)cc1

IC50 (Histone deacetylase 5): > 100 µM
Compound: Nc1ccccc1NC(=O)c1ccc(-c2cn(CCc3cccc([N+](=O)[O-])c3)nn2)s1

IC50 [5]: 5.62 µM
IC50 [6]: 2.45 µM
IC50 [7]: 2.73 µM
IC50 [8]: 0.035 µM
Compound: c1nc(-c2cn(CC3CO3)nn2)c2cc[nH]c2n1 (stereo not drawn)

IC50 [9]: > 10 µM
IC50 [10]: > 10 µM
IC50 [11]: > 10 µM
IC50 [12]: > 10 µM
Compound: C[C@@H]1COCCN1c1cc(=O)n2c(n1)N(Cc1cncc(Cl)c1)[C@H](C(F)(F)F)CC2

— ChEMBL document CHEMBL3621113, “Strategies for the Discovery of Target-Specific or Isoform-Selective Modulators” (J Med Chem, 2015)
